Molecules are shown by their SMILES.

The nature of this experiment: DPPH antioxidant test. The format is biochemical. The conditions noted are these: 517 nm. The method, then:
The antioxidant activity evaluation was performed through DPPH test.
Extract flower ethanol samples and PV6.7 were dissolved in methanol in concentrations of 1 mg.mL-1, 500 μg, mL-1, 250 μg, mL-1, 125 μg, mL-1, 62.5 μg, mL-1 and 31.25 μg, mL-1. As control Metabissulfito and Rutin were used in the same conditions of the samples.
Around 0.002 g of DPPH was dissolved in 50 mL of methanol. Then, it was verified the solution absorbance in spectrophotometer, in 517 nm, which must be below 1.
In a plastic Eppendorf, it was added 950 μL of methanolic solution of DPPH and 50 μL of the sample. As white, it was used in the place of the sample 50 μL of methanol. The samples were then incubated for 15 minutes at 30° C. After this period, the solutions were transferred to cuvettes and performed the readings at 517 nm, zeroing the spectrophotometer with methanol.
% inhibition=B−A/B×100, being A=sample, and B=White

Consider `O=S([O-])S(=O)(=O)[O-].[Na+].[Na+]` [Metabissulfito], for which the “Antioxidant Activity Percentage” value is on record as 0% (sample 31.25 μg · mL^−1, 15 minutes at 30° C.); 0% (sample 62.5 μg · mL^−1, 15 minutes at 30° C.); 1.33% (sample 125 μg · mL^−1, 15 minutes at 30° C.); 4.62% (sample 250 μg · mL^−1, 15 minutes at 30° C.); 8.63% (sample 500 μg · mL^−1, 15 minutes at 30° C.); 15.3% (sample 1 mg · mL^−1, 15 minutes at 30° C.).

The record behind these values is US20150126465A1, “PROCESS FOR PRODUCING DERIVATIVES OF PYROSTEGIA VENUSTA, DERIVATIVES OF PYROSTEGIA VENUSTA, PHARMACEUTICAL COMPOSITIONS AND ITS USES” (priority 2011, published 2015).
